Test results from patent US12022831B2, “Synergistic weed control from applications of aminopyralid and clopyralid” (Dow AgroSciences LLC, priority 2012, dated 2024).
Structures can show the parent of a compound that is named as a salt.

Tested on: honey mesquite (Prosopis glandulosa), weed bayer PRCJG
Experiment: Field trial, post-emergence foliar application, synergistic weed control (canopy control and mortality ratings, Colby's equation)
Assay type: in vivo
Method: In some embodiments, the damage or injury to the undesired vegetation caused by the compositions and methods disclosed herein is evaluated using a scale from 0% to 100%, when compared with the untreated control vegetation, wherein 0% indicates no damage to the undesired vegetation and 100% indicates complete destruction of the undesired vegetation.
X=effect in percent using (a) aminopyralid or an agriculturally acceptable salt or ester thereof at an application rate a;
Y=effect in percent using (b) clopyralid or an agriculturally acceptable salt or ester thereof at an application rate b;
E=expected effect (in %) of (a)+(b) at application rates a and b.
In Colby's equation, the value E corresponds to the effect (plant damage or injury) that is to be expected if the activity of the individual compounds is additive. If the observed effect is higher than the value E calculated according to the Colby equation, then a synergistic effect is present according to the Colby equation.
Field trials were conducted with applications made to established grassland with naturally occurring weed populations. The target plants were treated with postemergence foliar applications when they reached two to five feet tall. All treatments were applied using a nonrandomized trial design, with three replications per treatment.
[…] Spray solutions were prepared using an appropriate amount of dilution to form a 2 L aqueous spray solution with active ingredients in single and two way combinations. […] The treated plants were honey mesquite (Prosopis glandulosa). The treated plots and control plots were rated blind at various intervals after application. Ratings were based on a scale of 0-100%, wherein 0% indicates no damage to the canopy of the undesired vegetation and 100% indicates complete destruction of the canopy of undesired vegetation. Dead and live plants were counted and the mortality was calculated as a % of the total number of undesired plants per plot.
Colby's equation was used to determine the herbicidal effects expected from the mixtures, as described above. […] The herbicide tank mix combinations tested, application rates and ratios employed, plant species tested, and results are given below.

Nc1cc(Cl)nc(C(=O)O)c1Cl [Aminopyralid TIPA Salt, 4-amino-3,6-dichloro-2-pyridinecarboxylic acid]
Mean % weed mortality; Evaluation: % Canopy Control (Aminopyralid TIPA Salt alone 280 gae/ha, 81 days after treatment): 22.0% | Mean % weed mortality; Evaluation: % Canopy Control (Aminopyralid TIPA Salt alone 280 gae/ha, 82 days after treatment): 10.0% | Mean % weed mortality; Evaluation: % Mortality (Aminopyralid TIPA Salt alone 280 gae/ha, 385 days after treatment): 0% | Mean % weed mortality; Evaluation: % Mortality (Aminopyralid TIPA Salt alone 280 gae/ha, 386 days after treatment): 14%

O=C(O)c1nc(Cl)ccc1Cl [Clopyralid MEA Salt, 3,6-dichloro-2-pyridinecarboxylic acid]
Mean % weed mortality; Evaluation: % Canopy Control (Clopyralid MEA Salt alone 560 gae/ha, 82 days after treatment): 25.0% | Mean % weed mortality; Evaluation: % Mortality (Clopyralid MEA Salt alone 560 gae/ha, 385 days after treatment): 25% | Mean % weed mortality; Evaluation: % Mortality (Clopyralid MEA Salt alone 560 gae/ha, 386 days after treatment): 7%
